Assay results as given in patent publication US9527869B2, “Indolizine derivatives as phoshoinositide 3-kinases inhibitors” (CHIESI FARMACEUTICI S.P.A., priority 2014, dated 2016).

How the values were obtained:
Type in all cases: biochemical
PI3Kα = molecular target: T1, PI3Kα (Homo sapiens, UniProt P42336); assay: In vitro determination of the PI3K enzyme inhibitory activity in the cell free assay (ADP-Glo Kinase Assay), PI3Kα; details: ATP 50 μM, read-out: PI3K alpha inhibition
T1 construct: purchased Millipore Ltd (Billerica, Mass.)
T1 sequence (P42336 whole entry): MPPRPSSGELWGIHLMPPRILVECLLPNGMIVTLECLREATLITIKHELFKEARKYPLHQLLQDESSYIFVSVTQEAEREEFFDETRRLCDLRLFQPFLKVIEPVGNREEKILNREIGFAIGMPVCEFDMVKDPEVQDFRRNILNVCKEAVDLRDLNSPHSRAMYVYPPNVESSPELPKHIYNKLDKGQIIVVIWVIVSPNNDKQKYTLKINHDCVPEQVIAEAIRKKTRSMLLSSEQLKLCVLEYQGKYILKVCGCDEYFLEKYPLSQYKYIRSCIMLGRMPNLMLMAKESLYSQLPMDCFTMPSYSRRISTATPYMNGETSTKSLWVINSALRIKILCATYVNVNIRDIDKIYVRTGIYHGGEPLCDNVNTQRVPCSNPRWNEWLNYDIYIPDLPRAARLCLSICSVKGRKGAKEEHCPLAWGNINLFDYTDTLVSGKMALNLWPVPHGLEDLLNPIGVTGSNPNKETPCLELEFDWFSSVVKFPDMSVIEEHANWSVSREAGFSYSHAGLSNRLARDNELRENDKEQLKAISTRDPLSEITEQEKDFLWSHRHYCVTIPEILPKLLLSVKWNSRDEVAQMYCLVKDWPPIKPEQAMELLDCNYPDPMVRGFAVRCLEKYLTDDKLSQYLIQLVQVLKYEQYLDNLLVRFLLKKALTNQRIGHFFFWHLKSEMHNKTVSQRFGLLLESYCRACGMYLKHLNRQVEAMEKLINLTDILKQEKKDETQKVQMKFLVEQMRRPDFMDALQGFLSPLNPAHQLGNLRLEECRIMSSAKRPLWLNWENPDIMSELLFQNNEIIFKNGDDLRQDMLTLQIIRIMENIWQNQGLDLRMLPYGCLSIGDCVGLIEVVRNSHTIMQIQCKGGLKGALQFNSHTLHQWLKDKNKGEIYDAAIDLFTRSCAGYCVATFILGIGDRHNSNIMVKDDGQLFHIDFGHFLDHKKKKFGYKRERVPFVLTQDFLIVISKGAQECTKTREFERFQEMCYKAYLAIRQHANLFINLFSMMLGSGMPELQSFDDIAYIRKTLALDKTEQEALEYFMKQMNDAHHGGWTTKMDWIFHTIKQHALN
T1 sequence (P27986 whole entry partner): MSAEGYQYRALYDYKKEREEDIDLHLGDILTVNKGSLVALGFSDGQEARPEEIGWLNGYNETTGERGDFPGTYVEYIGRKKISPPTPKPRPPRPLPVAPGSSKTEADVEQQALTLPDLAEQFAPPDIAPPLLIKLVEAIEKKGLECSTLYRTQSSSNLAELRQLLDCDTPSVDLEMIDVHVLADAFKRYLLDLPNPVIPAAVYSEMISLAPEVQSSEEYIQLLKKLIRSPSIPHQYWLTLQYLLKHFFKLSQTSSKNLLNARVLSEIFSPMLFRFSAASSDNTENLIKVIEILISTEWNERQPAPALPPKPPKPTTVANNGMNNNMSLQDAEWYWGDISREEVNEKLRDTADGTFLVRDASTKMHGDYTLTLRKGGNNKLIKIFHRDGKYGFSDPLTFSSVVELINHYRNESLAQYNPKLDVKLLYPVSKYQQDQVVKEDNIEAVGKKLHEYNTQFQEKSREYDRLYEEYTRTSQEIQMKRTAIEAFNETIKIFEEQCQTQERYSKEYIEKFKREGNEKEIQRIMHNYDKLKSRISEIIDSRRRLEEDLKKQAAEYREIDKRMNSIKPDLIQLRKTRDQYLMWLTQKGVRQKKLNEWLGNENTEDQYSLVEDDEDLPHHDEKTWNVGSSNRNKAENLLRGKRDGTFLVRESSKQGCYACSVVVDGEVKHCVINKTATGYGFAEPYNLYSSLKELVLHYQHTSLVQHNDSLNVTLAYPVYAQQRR
How it was run: (§1)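 Human recombinant PI3K isoforms with PI/PS lipid substrates (50 μM in 2× buffer, Tris pH 7.5, DTT) were run 60 min at room temperature. Final ATP was 50 μM for α, 100 μM for β, 30 μM for γ and 80 μM for δ. ADP formation was read by ADP-Glo luminescence, and IC50 came from a four-parameter logistic fit.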

PI3Kβ = molecular target: T2, PI3Kβ (Homo sapiens, UniProt P42338); assay: In vitro determination of the PI3K enzyme inhibitory activity in the cell free assay (ADP-Glo Kinase Assay), PI3Kβ; details: ATP 100 μM, read-out: PI3K beta inhibition
T2 construct: purchased Millipore Ltd (Billerica, Mass.)
T2 sequence (P42338 whole entry): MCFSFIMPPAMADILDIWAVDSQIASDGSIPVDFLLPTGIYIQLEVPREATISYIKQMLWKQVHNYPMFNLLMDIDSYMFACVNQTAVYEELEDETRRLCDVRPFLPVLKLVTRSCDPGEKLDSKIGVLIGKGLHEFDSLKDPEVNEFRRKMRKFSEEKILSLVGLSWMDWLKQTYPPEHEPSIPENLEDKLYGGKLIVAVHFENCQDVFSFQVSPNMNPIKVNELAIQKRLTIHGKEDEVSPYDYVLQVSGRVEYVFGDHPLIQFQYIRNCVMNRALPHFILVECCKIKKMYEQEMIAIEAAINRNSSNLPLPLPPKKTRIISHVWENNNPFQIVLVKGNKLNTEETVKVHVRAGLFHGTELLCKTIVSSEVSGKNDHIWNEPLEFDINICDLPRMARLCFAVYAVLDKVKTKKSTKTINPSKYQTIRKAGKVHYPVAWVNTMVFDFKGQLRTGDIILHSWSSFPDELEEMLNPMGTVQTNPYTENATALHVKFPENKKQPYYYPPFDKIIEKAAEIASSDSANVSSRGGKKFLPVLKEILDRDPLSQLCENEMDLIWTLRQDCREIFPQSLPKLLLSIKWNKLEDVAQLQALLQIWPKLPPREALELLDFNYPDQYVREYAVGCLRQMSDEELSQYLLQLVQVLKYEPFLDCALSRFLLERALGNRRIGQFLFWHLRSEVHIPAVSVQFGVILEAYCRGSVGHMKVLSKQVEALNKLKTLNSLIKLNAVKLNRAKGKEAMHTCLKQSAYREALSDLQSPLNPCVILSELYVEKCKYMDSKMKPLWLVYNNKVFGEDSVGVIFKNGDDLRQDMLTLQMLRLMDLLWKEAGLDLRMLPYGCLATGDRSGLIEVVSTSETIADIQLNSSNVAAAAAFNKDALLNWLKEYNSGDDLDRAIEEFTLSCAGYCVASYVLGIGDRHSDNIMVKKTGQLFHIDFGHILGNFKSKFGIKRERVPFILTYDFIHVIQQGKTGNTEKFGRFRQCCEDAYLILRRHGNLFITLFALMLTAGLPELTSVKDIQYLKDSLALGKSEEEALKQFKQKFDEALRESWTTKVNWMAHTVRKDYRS
T2 sequence (P27986 whole entry partner): as the sequence (P27986 whole entry partner) above
How it was run: as §1

PI3Kγ = molecular target: T3, PI3Kγ (Homo sapiens, UniProt P48736); assay: In vitro determination of the PI3K enzyme inhibitory activity in the cell free assay (ADP-Glo Kinase Assay), PI3Kγ; details: ATP 30 μM, read-out: PI3K gamma inhibition
T3 construct: purchased Millipore Ltd (Billerica, Mass.)
T3 sequence (P48736 whole entry): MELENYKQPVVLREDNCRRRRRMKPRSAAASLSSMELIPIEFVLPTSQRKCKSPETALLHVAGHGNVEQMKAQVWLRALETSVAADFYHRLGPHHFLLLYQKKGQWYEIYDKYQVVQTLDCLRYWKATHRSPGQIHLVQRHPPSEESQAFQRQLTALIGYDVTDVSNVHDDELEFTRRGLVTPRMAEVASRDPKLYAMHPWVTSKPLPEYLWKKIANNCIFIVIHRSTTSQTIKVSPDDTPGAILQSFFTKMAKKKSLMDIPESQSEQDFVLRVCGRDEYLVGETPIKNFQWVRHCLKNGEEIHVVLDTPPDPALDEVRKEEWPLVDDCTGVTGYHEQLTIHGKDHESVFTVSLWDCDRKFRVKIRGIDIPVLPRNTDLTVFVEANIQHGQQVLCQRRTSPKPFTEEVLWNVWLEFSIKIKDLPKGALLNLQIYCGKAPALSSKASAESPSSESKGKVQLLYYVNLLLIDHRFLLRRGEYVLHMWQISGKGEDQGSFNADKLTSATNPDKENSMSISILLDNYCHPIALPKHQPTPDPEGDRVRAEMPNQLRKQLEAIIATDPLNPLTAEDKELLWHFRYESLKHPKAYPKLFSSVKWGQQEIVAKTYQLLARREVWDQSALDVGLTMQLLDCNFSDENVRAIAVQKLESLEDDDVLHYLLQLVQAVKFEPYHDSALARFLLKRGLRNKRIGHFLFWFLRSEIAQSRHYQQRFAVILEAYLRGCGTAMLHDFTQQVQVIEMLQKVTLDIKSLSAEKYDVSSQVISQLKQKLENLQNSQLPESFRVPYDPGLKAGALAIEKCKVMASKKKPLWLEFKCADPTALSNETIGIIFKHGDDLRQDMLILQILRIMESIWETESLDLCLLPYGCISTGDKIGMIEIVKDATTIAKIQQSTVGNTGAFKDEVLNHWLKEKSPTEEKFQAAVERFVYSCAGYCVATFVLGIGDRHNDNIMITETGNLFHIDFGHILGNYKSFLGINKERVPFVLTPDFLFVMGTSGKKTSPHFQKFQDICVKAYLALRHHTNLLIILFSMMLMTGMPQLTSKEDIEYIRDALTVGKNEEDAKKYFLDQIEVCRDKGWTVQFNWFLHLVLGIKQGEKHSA
How it was run: as §1

PI3Kδ = molecular target: T4, PI3Kδ (Homo sapiens, UniProt O00329); assay: In vitro determination of the PI3K enzyme inhibitory activity in the cell free assay (ADP-Glo Kinase Assay), PI3Kδ; details: ATP 80 μM, read-out: PI3K delta inhibition
T4 construct: purchased Millipore Ltd (Billerica, Mass.)
T4 sequence (O00329 whole entry): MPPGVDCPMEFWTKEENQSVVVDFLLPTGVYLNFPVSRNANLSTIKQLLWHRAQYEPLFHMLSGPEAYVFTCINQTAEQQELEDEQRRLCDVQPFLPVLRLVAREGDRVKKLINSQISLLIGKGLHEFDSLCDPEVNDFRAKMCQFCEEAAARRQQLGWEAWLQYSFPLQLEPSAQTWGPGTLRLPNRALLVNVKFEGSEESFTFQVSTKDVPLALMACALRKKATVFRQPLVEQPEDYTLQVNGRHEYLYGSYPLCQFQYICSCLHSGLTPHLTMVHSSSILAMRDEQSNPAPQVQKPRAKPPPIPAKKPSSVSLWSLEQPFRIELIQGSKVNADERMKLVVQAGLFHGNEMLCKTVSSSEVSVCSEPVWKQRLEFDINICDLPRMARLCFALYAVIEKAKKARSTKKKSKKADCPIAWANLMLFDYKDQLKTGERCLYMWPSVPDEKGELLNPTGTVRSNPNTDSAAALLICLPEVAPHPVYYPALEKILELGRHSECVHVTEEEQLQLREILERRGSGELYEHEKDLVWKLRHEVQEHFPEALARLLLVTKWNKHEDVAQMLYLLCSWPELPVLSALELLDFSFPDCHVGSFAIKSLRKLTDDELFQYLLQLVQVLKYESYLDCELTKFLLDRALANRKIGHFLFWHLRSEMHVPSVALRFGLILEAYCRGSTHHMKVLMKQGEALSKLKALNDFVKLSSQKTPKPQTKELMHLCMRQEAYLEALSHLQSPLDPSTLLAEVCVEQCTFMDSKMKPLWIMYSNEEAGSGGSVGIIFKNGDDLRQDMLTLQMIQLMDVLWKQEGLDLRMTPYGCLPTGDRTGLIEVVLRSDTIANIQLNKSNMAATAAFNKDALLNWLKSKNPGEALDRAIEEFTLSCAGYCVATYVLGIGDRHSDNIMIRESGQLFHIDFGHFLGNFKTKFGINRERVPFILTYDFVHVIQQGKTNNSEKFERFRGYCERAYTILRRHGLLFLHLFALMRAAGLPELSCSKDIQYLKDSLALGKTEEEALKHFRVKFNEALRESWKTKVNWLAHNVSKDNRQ
T4 sequence (P27986 whole entry partner): as the sequence (P27986 whole entry partner) above
How it was run: as §1

Row | IC50 (PI3Kα) | IC50 (PI3Kβ) | IC50 (PI3Kγ) | IC50 (PI3Kδ) | Compound
1 | > 1000 nM | > 1000 nM | > 1000 nM | 10 to 1000 nM | Cc1ccn2c(-c3ccccn3)c(C(C)n3nc(-c4cc(O)cc(F)c4)c4c(N)ncnc43)cc2c1 (stereo not shown) [Example 105, 3-(4-amino-1-{1-[7-methyl-3-(pyridin-2-yl)indolizin-2-yl]ethyl}-1H-pyrazolo[3,4-d]pyrimidin-3-yl)-5-fluorophenol]
2 | > 1000 nM | 10 to 1000 nM | 10 to 1000 nM | < 10 nM | Cc1cc(-c2c(C(C)n3nc(-c4cc(O)cc(F)c4)c4c(N)ncnc43)cc3ccccn23)ccn1 (stereo not shown) [Example 106, 3-(4-amino-1-{1-[3-(2-methylpyridin-4-yl)indolizin-2-yl]ethyl}-1H-pyrazolo[3,4-d]pyrimidin-3-yl)-5-fluorophenol]
3 | > 1000 nM | 10 to 1000 nM | 10 to 1000 nM | < 10 nM | Cc1cc(-c2c(C(C)n3nc(-c4cncc(O)c4)c4c(N)ncnc43)cc3ccccn23)ccn1 (stereo not shown) [Example 107, 5-(4-amino-1-{1-[3-(2-methylpyridin-4-yl)indolizin-2-yl]ethyl}-1H-pyrazolo[3,4-d]pyrimidin-3-yl)pyridin-3-ol]
4 | > 1000 nM | 10 to 1000 nM | > 1000 nM | < 10 nM | CC(c1cc2ccccn2c1-c1ccc(CN2CCOCC2)cn1)n1nc(-c2cc(O)cc(F)c2)c2c(N)ncnc21 (stereo not shown) [Example 108, 3-[4-amino-1-(1-{3-[5-(morpholin-4-ylmethyl)pyridin-2-yl]indolizin-2-yl}ethyl)-1H-pyrazolo[3,4-d]pyrimidin-3-yl]-5-fluorophenol]
5 | > 1000 nM | 10 to 1000 nM | > 1000 nM | 10 to 1000 nM | CC(c1cc2ccccn2c1-c1ccc(CN(C)C)cn1)n1nc(-c2cc(O)cc(F)c2)c2c(N)ncnc21 (stereo not shown) [Example 109, 3-{4-amino-1-[1-(3-{5-[(dimethylamino)-methyl]pyridin-2-yl}indolizin-2-yl)ethyl]-1H-pyrazolo[3,4-d]pyrimidin-3-yl}-5-fluorophenol]
6 | > 1000 nM | 10 to 1000 nM | > 1000 nM | < 10 nM | CC(c1cc2ccccn2c1-c1cccc(CN2CCOCC2)n1)n1nc(-c2cc(O)cc(F)c2)c2c(N)ncnc21 (stereo not shown) [Example 110, 3-[4-amino-1-(1-{3-[6-(morpholin-4-ylmethyl)pyridin-2-yl]indolizin-2-yl}ethyl)-1H-pyrazolo[3,4-d]-pyrimidin-3-yl]-5-fluorophenol]
7 | > 1000 nM | 10 to 1000 nM | 10 to 1000 nM | < 10 nM | CC(c1cc2ccccn2c1-c1cc(CN2CCOCC2)ccn1)n1nc(-c2cc(O)cc(F)c2)c2c(N)ncnc21 (stereo not shown) [Example 111, 3-[4-amino-1-(1-{3-[4-(morpholin-4-ylmethyl)pyridin-2-yl]indolizin-2-yl}ethyl)-1H-pyrazolo[3,4-d]-pyrimidin-3-yl]-5-fluorophenol]
8 | 10 to 1000 nM | 10 to 1000 nM | 10 to 1000 nM | < 10 nM | CC(c1cc2ccccn2c1-c1cc(CN(C)C)ccn1)n1nc(-c2cc(O)cc(F)c2)c2c(N)ncnc21 (stereo not shown) [Example 112, 3-{4-amino-1-[1-(3-{4-[(dimethylamino)-methyl]pyridin-2-yl}indolizin-2-yl)-ethyl]-1H-pyrazolo[3,4-d]pyrimidin-3-yl}-5-fluorophenol]
9 | > 1000 nM | 10 to 1000 nM | > 1000 nM | < 10 nM | CC(c1cc2ccccn2c1-c1ccc(CN2CCCC2)cn1)n1nc(-c2cc(O)cc(F)c2)c2c(N)ncnc21 (stereo not shown) [Example 113, 3-[4-amino-1-(1-{3-[5-(pyrrolidin-1-ylmethyl)pyridin-2-yl]indolizin-2-yl}ethyl)-1H-pyrazolo[3,4-d]pyrimidin-3-yl]-5-fluorophenol]
10 | > 1000 nM | 10 to 1000 nM | > 1000 nM | < 10 nM | CC(c1cc2ccccn2c1-c1ccc(CN2CCN(C)CC2)cn1)n1nc(-c2cc(O)cc(F)c2)c2c(N)ncnc21 (stereo not shown) [Example 114, 3-{4-amino-1-[1-(3-{5-[(4-methylpiperazin-1-yl)methyl]pyridin-2-yl}indolizin-2-yl)ethyl]-1H-pyrazolo-[3,4-d]pyrimidin-3-yl}-5-fluorophenol]
11 | 10 to 1000 nM | 10 to 1000 nM | 10 to 1000 nM | 10 to 1000 nM | CC(c1cc2ccccn2c1-c1cccc(CN2CCN(C)CC2)n1)n1nc(-c2cc(O)cc(F)c2)c2c(N)ncnc21 (stereo not shown) [Example 115, 3-{4-amino-1-[1-(3-{6-[(4-methylpiperazin-1-yl)methyl]pyridin-2-yl}indolizin-2-yl)ethyl]-1H-pyrazolo-[3,4-d]pyrimidin-3-yl}-5-fluorophenol]
12 | 10 to 1000 nM | 10 to 1000 nM | 10 to 1000 nM | < 10 nM | CC(c1cc2ccccn2c1-c1cc(CN2CCN(C)CC2)ccn1)n1nc(-c2cc(O)cc(F)c2)c2c(N)ncnc21 (stereo not shown) [Example 116, 3-{4-amino-1-[1-(3-{4-[(4-methylpiperazin-1-yl)methyl]pyridin-2-yl}indolizin-2-yl)ethyl]-1H-pyrazolo-[3,4-d]pyrimidin-3-yl}-5-fluorophenol]
13 | > 1000 nM | 10 to 1000 nM | > 1000 nM | < 10 nM | CC(c1cc2ccccn2c1-c1ccc(CN(CCO)CCO)cn1)n1nc(-c2cc(O)cc(F)c2)c2c(N)ncnc21 (stereo not shown) [Example 117, 3-(4-amino-1-{1-[3-(5-{[bis(2-hydroxyethyl)amino]methyl}pyridin-2-yl)indolizin-2-yl]ethyl}-1H-pyrazolo[3,4-d]pyrimidin-3-yl)-5-fluorophenol]
14 | > 1000 nM | 10 to 1000 nM | > 1000 nM | < 10 nM | CC(c1cc2ccccn2c1-c1ccc(OCCN2CCOCC2)cn1)n1nc(-c2cc(O)cc(F)c2)c2c(N)ncnc21 (stereo not shown) [Example 119, 3-{4-amino-1-[1-(3-{5-[2-(morpholin-4-yl)ethoxy]pyridin-2-yl}indolizin-2-yl)ethyl]-1H-pyrazolo[3,4-d]-pyrimidin-3-yl}-5-fluorophenol]
15 | > 1000 nM | > 1000 nM | 10 to 1000 nM | < 10 nM | CC(c1cc2ccccn2c1-c1ccc(=O)n(CCN2CCOCC2)c1)n1nc(-c2cc(O)cc(F)c2)c2c(N)ncnc21 (stereo not shown) [Example 120, 5-(2-{1-[4-amino-3-(3-fluoro-5-hydroxyphenyl)-1H-pyrazolo[3,4-d]pyrimidin-1-yl]ethyl}-indolizin-3-yl)-1-[2-(morpholin-4-yl)ethyl]-1,2-dihydropyridin-2-one]
16 | > 1000 nM | 10 to 1000 nM | 10 to 1000 nM | < 10 nM | CC(c1cc2ccccn2c1-c1ccn(CCN2CCOCC2)c(=O)c1)n1nc(-c2cc(O)cc(F)c2)c2c(N)ncnc21 (stereo not shown) [Example 121, 4-(2-{1-[4-amino-3-(3-fluoro-5-hydroxyphenyl)-1H-pyrazolo[3,4-d]pyrimidin-1-yl]ethyl}-indolizin-3-yl)-1-[2-(morpholin-4-yl)ethyl]-1,2-dihydropyridin-2-one]
17 | > 1000 nM | 10 to 1000 nM | > 1000 nM | < 10 nM | CC(c1cc2ccccn2c1-c1ccn(CCN2CCOCC2)c(=O)c1)n1nc(-c2cncc(O)c2)c2c(N)ncnc21 (stereo not shown) [Example 122, 4-(2-{1-[4-amino-3-(5-hydroxypyridin-3-yl)-1H-pyrazolo[3,4-d]pyrimidin-1-yl]ethyl}indolizin-3-yl)-1-[2-(morpholin-4-yl)ethyl]-1,2-dihydropyridin-2-one]
18 | > 1000 nM | 10 to 1000 nM | > 1000 nM | < 10 nM | CC(c1cc2ccccn2c1-c1ccccc1C#N)n1nc(-c2cc(O)cc(F)c2)c2c(N)ncnc21 (stereo not shown) [Example 123, 2-(2-{1-[4-amino-3-(3-fluoro-5-hydroxyphenyl)-1H-pyrazolo[3,4-d]pyrimidin-1-yl]-ethyl}indolizin-3-yl)benzonitrile]
19 | > 1000 nM | 10 to 1000 nM | > 1000 nM | < 10 nM | CC(c1c(C(F)(F)F)c2ccccn2c1-c1ccccn1)n1nc(-c2cc(O)cc(F)c2)c2c(N)ncnc21 (stereo not shown) [Example 124, 3-(4-amino-1-{1-[3-(pyridin-2-yl)-1-(trifluoromethyl)indolizin-2-yl]ethyl}-1H-pyrazolo[3,4-d]pyrimidin-3-yl)-5-fluorophenol]
20 | 10 to 1000 nM | 10 to 1000 nM | 10 to 1000 nM | < 10 nM | CC(c1cc2ccccn2c1-c1ccc(C(=O)N2CCOCC2)cn1)n1nc(-c2cc(O)cc(F)c2)c2c(N)ncnc21 (stereo not shown) [Example 125, 3-[4-amino-1-(1-{3-[5-(morpholine-4-carbonyl)pyridin-2-yl]indolizin-2-yl}ethyl)-1H-pyrazolo[3,4-d]-pyrimidin-3-yl]-5-fluorophenol]
21 | 10 to 1000 nM | 10 to 1000 nM | 10 to 1000 nM | < 10 nM | CC(c1c(C#N)c2ccccn2c1-c1ccccn1)n1nc(-c2cc(O)cc(F)c2)c2c(N)ncnc21 (stereo not shown) [Example 126, 2-{1-[4-amino-3-(3-fluoro-5-hydroxyphenyl)-1H-pyrazolo[3,4-d]pyrimidin-1-yl]-ethyl}-3-(pyridin-2-yl)indolizine-1-carbonitrile]
22 | > 1000 nM | 10 to 1000 nM | > 1000 nM | < 10 nM | CC(c1c(C#N)c2ccccn2c1-c1cccc(CN(C)C)c1)n1nc(-c2cc(O)cc(F)c2)c2c(N)ncnc21 (stereo not shown) [Example 127, 2-{1-[4-amino-3-(3-fluoro-5-hydroxyphenyl)-1H-pyrazolo[3,4-d]pyrimidin-1-yl]-ethyl}-3-{3-[(dimethylamino)-methyl]phenyl}indolizine-1-carbonitrile]
